# Measurements published in ChEMBL document CHEMBL1641554, “Synthesis and SAR study of diphenylbutylpiperidines as cell autophagy inducers” (Bioorg Med Chem Lett, 2011).
# Test system: H4
# Assay: Induction of autophagy in human H4 cells expressing LC3 using DAPI staining after 4 hrs by fluorescence microscopic analysis
# Assay type: functional, cell-based
# Conditions: H4, 4 h
row,Compound,EC50
1,N#CC(CCCN1CCC2(CC1)C(=O)NCN2c1ccccc1)(c1ccccc1)c1ccccc1,14.8 µM
2,O=C1NCN(c2ccccc2)C12CCN(CCCN(c1ccccc1)c1ccccc1)CC2,24.9 µM
3,O=C1NCN(c2ccccc2)C12CCN(CCC=C(c1ccc(F)cc1)c1ccc(F)cc1)CC2,6.2 µM
4,O=C(CCC(c1ccc(F)cc1)c1ccc(F)cc1)N1CCC2(CC1)C(=O)NCN2c1ccccc1,> 50 µM
5,O=C1NCN(c2ccccc2)C12CCN(CCCC(O)c1ccc(F)cc1)CC2 (stereo unspecified),> 50 µM
6,O=C1NCN(c2ccccc2)C12CCN(CC/C=C\c1ccc(F)cc1)CC2,> 50 µM
7,O=C1NCN(c2ccccc2)C12CCN(CCCCC(c1ccc(F)cc1)c1ccc(F)cc1)CC2,4.7 µM
8,O=C1NCN(c2ccccc2)C12CCN(CCC(c1ccc(F)cc1)c1ccc(F)cc1)CC2,2.1 µM
9,O=C1NCN(c2ccccc2)C12CCN(CCCC(c1ccccc1)c1ccccc1)CC2,34.6 µM
10,O=C1NCN(c2ccccc2)C12CCN(CCCC(c1ccc(Cl)cc1)c1ccc(Cl)cc1)CC2,4.2 µM
11,O=C1NCN(c2ccccc2)C12CCN(CCCC(c1ccc(C(F)(F)F)cc1)c1ccc(C(F)(F)F)cc1)CC2,3.7 µM
12,Cc1ccc(C(CCCN2CCC3(CC2)C(=O)NCN3c2ccccc2)c2ccc(C)cc2)cc1,3.1 µM
13,COc1ccc(C(CCCN2CCC3(CC2)C(=O)NCN3c2ccccc2)c2ccc(OC)cc2)cc1,4.6 µM
14,OC1(c2ccc(Cl)c(C(F)(F)F)c2)CCN(CCCC(c2ccc(OC(F)(F)F)cc2)c2ccc(OC(F)(F)F)cc2)CC1,0.97 µM
15,OC1(c2ccc(Cl)c(C(F)(F)F)c2)CCN(CCCC(c2cccc(F)c2)c2cccc(F)c2)CC1,2.2 µM
16,OC1(c2ccc(Cl)c(C(F)(F)F)c2)CCN(CCCC(c2cccc(C(F)(F)F)c2)c2cccc(C(F)(F)F)c2)CC1,0.65 µM
17,Cc1cccc(C(CCCN2CCC(O)(c3ccc(Cl)c(C(F)(F)F)c3)CC2)c2cccc(C)c2)c1,0.29 µM
18,O=C1NCN(c2ccccc2)C12CCN(C1c3ccccc3Sc3ccccc31)CC2,> 50 µM
19,OC1(c2ccc(C(F)(F)F)c(Cl)c2)CCN(C2c3ccccc3-c3ccccc32)CC1,2.6 µM
20,OC1(c2ccc(C(F)(F)F)c(Cl)c2)CCN(C2c3ccccc3Sc3ccccc32)CC1,14.4 µM
21,OC1(c2ccc(C(F)(F)F)c(Cl)c2)CCN(C2c3ccccc3CCc3ccccc32)CC1,2.6 µM
22,CN1CCN(CCCC(c2ccc(F)cc2)c2ccc(F)cc2)CC1,> 50 µM
23,OCCN1CCN(CCCC(c2ccc(F)cc2)c2ccc(F)cc2)CC1,> 50 µM

row,Compound,EC50
1,Fc1ccc(C(CCCN2CCN(c3ccc(Cl)cc3)CC2)c2ccc(F)cc2)cc1,> 50 µM
2,Fc1ccc(C(CCCN2CCOCC2)c2ccc(F)cc2)cc1,> 50 µM
3,Cc1ccc(C2=CCN(CCCC(c3ccc(F)cc3)c3ccc(F)cc3)CC2)cc1,> 50 µM
4,Cc1ccc(C2CCN(CCCC(c3ccc(F)cc3)c3ccc(F)cc3)CC2)cc1,> 50 µM
5,Cc1ccc(C2(O)CCN(CCCC(c3ccc(F)cc3)c3ccc(F)cc3)CC2)cc1,6.4 µM
6,CC(=O)OC1(c2ccc(C)cc2)CCN(CCCC(c2ccc(F)cc2)c2ccc(F)cc2)CC1,4.4 µM
7,CC(=O)NC1(c2ccc(C)cc2)CCN(CCCC(c2ccc(F)cc2)c2ccc(F)cc2)CC1,2.2 µM
8,N#CC1(c2ccccc2)CCN(CCCC(c2ccc(F)cc2)c2ccc(F)cc2)CC1,10.5 µM
9,OC1(c2ccc(Cl)c(C(F)(F)F)c2)CCN(CCC=C(c2ccc(F)cc2)c2ccc(F)cc2)CC1,4.3 µM
10,O=C(CCC(c1ccc(F)cc1)c1ccc(F)cc1)N1CCC(O)(c2ccc(Cl)c(C(F)(F)F)c2)CC1,> 50 µM
11,OC1(c2ccc(Cl)c(C(F)(F)F)c2)CCN(CCCCC(c2ccc(F)cc2)c2ccc(F)cc2)CC1,2.7 µM
12,OC1(c2ccc(Cl)c(C(F)(F)F)c2)CCN(CCC(c2ccc(F)cc2)c2ccc(F)cc2)CC1,4.5 µM
13,OC1(c2ccc(Cl)c(C(F)(F)F)c2)CCN(CCCC(c2ccccc2)c2ccccc2)CC1,5.1 µM
14,OC1(c2ccc(Cl)c(C(F)(F)F)c2)CCN(CCCC(c2ccc(Cl)cc2)c2ccc(Cl)cc2)CC1,2.4 µM
15,OC1(c2ccc(Cl)c(C(F)(F)F)c2)CCN(CCCC(c2ccc(C(F)(F)F)cc2)c2ccc(C(F)(F)F)cc2)CC1,0.28 µM
16,Cc1ccc(C(CCCN2CCC(O)(c3ccc(Cl)c(C(F)(F)F)c3)CC2)c2ccc(C)cc2)cc1,0.29 µM
17,COc1ccc(C(CCCN2CCC(O)(c3ccc(Cl)c(C(F)(F)F)c3)CC2)c2ccc(OC)cc2)cc1,1.2 µM
18,O=C1NCN(c2ccccc2)C12CCN(C1c3ccccc3-c3ccccc31)CC2,7.9 µM
19,O=C1NCN(c2ccccc2)C12CCN(C1c3ccccc3CCc3ccccc31)CC2,5.1 µM
20,N#CC(CCCN1CCC(O)(c2ccc(Cl)c(C(F)(F)F)c2)CC1)(c1ccccc1)c1ccccc1,3.2 µM
21,O=C1NCN(c2ccccc2)C12CCN(CCCCc1ccc(F)cc1)CC2,> 50 µM
22,O=C1NCN(c2ccccc2)C12CCN(CCCC(c1ccc(F)cc1)c1ccc(F)cc1)CC2 [FLUSPIRILENE],2.4 µM
23,OC1(c2ccc(Cl)c(C(F)(F)F)c2)CCN(CCCC(c2ccc(F)cc2)c2ccc(F)cc2)CC1 [PENFLURIDOL],3.2 µM
